# Values of other authors in patent US20070293552A1, “ANTIHYPERTENSIVE THERAPY METHOD” (priority 2006, published 2007).
# Biological target: T1, ETA (Homo sapiens, UniProt P25101)
# T1 sequence (P25101 21-427): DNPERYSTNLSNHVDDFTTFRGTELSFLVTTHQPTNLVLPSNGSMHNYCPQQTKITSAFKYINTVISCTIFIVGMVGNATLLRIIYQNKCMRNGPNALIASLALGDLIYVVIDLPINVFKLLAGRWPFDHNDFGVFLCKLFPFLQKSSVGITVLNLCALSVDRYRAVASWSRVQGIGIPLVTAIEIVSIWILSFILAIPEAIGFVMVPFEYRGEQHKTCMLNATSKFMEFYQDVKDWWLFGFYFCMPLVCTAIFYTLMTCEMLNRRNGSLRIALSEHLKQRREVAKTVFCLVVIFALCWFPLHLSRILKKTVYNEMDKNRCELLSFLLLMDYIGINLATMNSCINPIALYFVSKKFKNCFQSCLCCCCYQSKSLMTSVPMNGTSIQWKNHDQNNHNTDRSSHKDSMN
# Conditions: selectivity for ETA over ETB; reported by Wu et al. (2004) J. Med. Chem. 47, 1969-1986
smiles,measurement,value
"CC(=O)c1cc(C)cc(C)c1NC(=O)c1sccc1S(=O)(=O)Nc1onc(C)c1C [TBC3711, N-(2-acetyl-4,6-dimethylphenyl)-3-(3,4-dimethylisoxazol-5-ylsulfamoyl)-thiophene-2-carboxamide]",ETA/ETB selectivity factor,441×10^3
